# Reference: PubChem BioAssay AID1963838 (Molecular Pharmacology Branch, DTP, NCI, 2024)
# Tested on: 855422-203-R-J1-PDC complex spheroid viability
# Test: Anticancer human tumor 855422-203-R-J1-PDC patient-derived bladder carcinoma cell line growth inhibition [POLQ]
# Conditions: for IC50: curve of first compound; for viability, T/C: stronger effect = lower value
# Outline: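 Patient-derived tumour cells were co-cultured with HUVEC and mesenchymal stem cells as multicellular spheroids at 37 °C. They were treated with POLQ inhibitors (novobiocin, ART-558, RP6685) alone or combined with other agents. Top concentrations were at or near clinical Cmax (otherwise 10 microM; SN-38 at 1 microM), decreasing in half-log steps.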
# [1] = second compound 0.0316 µM, first compound 0.0316 µM
# [2] = second compound 0.0316 µM, first compound 0.1 µM
# [3] = second compound 0.0316 µM, first compound 0.316 µM
# [4] = second compound 0.0316 µM, first compound 1 µM
# [5] = second compound 0.0316 µM, first compound 3.16 µM
# [6] = second compound 0.0316 µM, first compound 10 µM
# [7] = second compound 0.1 µM, first compound 0.0316 µM
# [8] = second compound 0.1 µM, first compound 0.1 µM
# [9] = second compound 0.1 µM, first compound 0.316 µM
# [10] = second compound 0.1 µM, first compound 1 µM
# [11] = second compound 0.1 µM, first compound 3.16 µM
# [12] = second compound 0.1 µM, first compound 10 µM
# [13] = second compound 0.316 µM, first compound 0.0316 µM
# [14] = second compound 0.316 µM, first compound 0.1 µM
# [15] = second compound 0.316 µM, first compound 0.316 µM
# [16] = second compound 0.316 µM, first compound 1 µM
# [17] = second compound 0.316 µM, first compound 3.16 µM
# [18] = second compound 0.316 µM, first compound 10 µM
# [19] = second compound 1 µM, first compound 0.0316 µM
# [20] = second compound 1 µM, first compound 0.1 µM
# [21] = second compound 1 µM, first compound 0.316 µM
# [22] = second compound 1 µM, first compound 1 µM
# [23] = second compound 1 µM, first compound 3.16 µM
# [24] = second compound 1 µM, first compound 10 µM
# [25] = second compound 3.16 µM, first compound 0.0316 µM
# [26] = second compound 3.16 µM, first compound 0.1 µM
# [27] = second compound 3.16 µM, first compound 0.316 µM
# [28] = second compound 3.16 µM, first compound 1 µM
# [29] = second compound 3.16 µM, first compound 3.16 µM
# [30] = second compound 3.16 µM, first compound 10 µM
# [31] = second compound 10 µM, first compound 0.0316 µM
# [32] = second compound 10 µM, first compound 0.1 µM
# [33] = second compound 10 µM, first compound 0.316 µM
# [34] = second compound 10 µM, first compound 1 µM
# [35] = second compound 10 µM, first compound 3.16 µM
# [36] = second compound 10 µM, first compound 10 µM
# 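Note: spheroids exposed to compounds for seven days before readout.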
smiles,measurement,setting,value
CNCc1ccc(-c2[nH]c3cc(F)cc4c3c2CCNC4=O)cc1 + Cc1cccc(N(C)C(=O)C2C(O)CCN2c2nc(C)cc(C(F)(F)F)c2C#N)c1,IC50,second compound 0.0316 µM,> 10 µM
same,IC50,second compound 0.1 µM,> 10 µM
same,IC50,second compound 0.316 µM,> 10 µM
same,IC50,second compound 1 µM,> 10 µM
same,IC50,second compound 3.16 µM,> 10 µM
same,IC50,second compound 10 µM,> 10 µM
same,"viability, T/C",[1],115%
same,"viability, T/C",[2],101%
same,"viability, T/C",[3],99.2%
same,"viability, T/C",[4],104%
same,"viability, T/C",[5],114%
same,"viability, T/C",[6],108%
same,"viability, T/C",[7],101%
same,"viability, T/C",[8],101%
same,"viability, T/C",[9],90.5%
same,"viability, T/C",[10],107%
same,"viability, T/C",[11],111%
same,"viability, T/C",[12],106%
same,"viability, T/C",[13],107%
same,"viability, T/C",[14],115%
same,"viability, T/C",[15],112%
same,"viability, T/C",[16],103%
same,"viability, T/C",[17],113%
same,"viability, T/C",[18],120%
same,"viability, T/C",[19],101%
same,"viability, T/C",[20],105%
same,"viability, T/C",[21],101%
same,"viability, T/C",[22],103%
same,"viability, T/C",[23],114%
same,"viability, T/C",[24],105%
same,"viability, T/C",[25],112%
same,"viability, T/C",[26],108%
same,"viability, T/C",[27],118%
same,"viability, T/C",[28],98.8%
same,"viability, T/C",[29],108%
same,"viability, T/C",[30],111%
same,"viability, T/C",[31],110%
same,"viability, T/C",[32],95.6%
same,"viability, T/C",[33],100%
same,"viability, T/C",[34],104%
same,"viability, T/C",[35],116%
same,"viability, T/C",[36],107%
Cn1ncnc1[C@H]1c2n[nH]c(=O)c3cc(F)cc(c23)N[C@@H]1c1ccc(F)cc1 + Cc1cccc(N(C)C(=O)C2C(O)CCN2c2nc(C)cc(C(F)(F)F)c2C#N)c1,IC50,second compound 0.0316 µM,> 0.1 µM
same,IC50,second compound 0.1 µM,> 0.1 µM
same,IC50,second compound 0.316 µM,> 0.1 µM
same,IC50,second compound 1 µM,> 0.1 µM
same,IC50,second compound 3.16 µM,> 0.1 µM
same,IC50,second compound 10 µM,> 0.1 µM
same,"viability, T/C","second compound 0.0316 µM, first compound 0.000316 µM",114%
same,"viability, T/C","second compound 0.0316 µM, first compound 0.001 µM",107%
same,"viability, T/C","second compound 0.0316 µM, first compound 0.00316 µM",115%
same,"viability, T/C","second compound 0.0316 µM, first compound 0.01 µM",108%
same,"viability, T/C",[1],108%
same,"viability, T/C",[2],103%
same,"viability, T/C","second compound 0.1 µM, first compound 0.000316 µM",102%
same,"viability, T/C","second compound 0.1 µM, first compound 0.001 µM",103%
same,"viability, T/C","second compound 0.1 µM, first compound 0.00316 µM",98.5%
same,"viability, T/C","second compound 0.1 µM, first compound 0.01 µM",100%
same,"viability, T/C",[7],105%
same,"viability, T/C",[8],107%
same,"viability, T/C","second compound 0.316 µM, first compound 0.000316 µM",108%
same,"viability, T/C","second compound 0.316 µM, first compound 0.001 µM",104%
same,"viability, T/C","second compound 0.316 µM, first compound 0.00316 µM",116%
same,"viability, T/C","second compound 0.316 µM, first compound 0.01 µM",104%
same,"viability, T/C",[13],116%
same,"viability, T/C",[14],104%
same,"viability, T/C","second compound 1 µM, first compound 0.000316 µM",100%
same,"viability, T/C","second compound 1 µM, first compound 0.001 µM",109%
same,"viability, T/C","second compound 1 µM, first compound 0.00316 µM",112%
same,"viability, T/C","second compound 1 µM, first compound 0.01 µM",102%
same,"viability, T/C",[19],104%
same,"viability, T/C",[20],97.3%
same,"viability, T/C","second compound 3.16 µM, first compound 0.000316 µM",98.6%
same,"viability, T/C","second compound 3.16 µM, first compound 0.001 µM",98%
same,"viability, T/C","second compound 3.16 µM, first compound 0.00316 µM",96.4%
same,"viability, T/C","second compound 3.16 µM, first compound 0.01 µM",113%
same,"viability, T/C",[25],113%
same,"viability, T/C",[26],104%
same,"viability, T/C","second compound 10 µM, first compound 0.000316 µM",109%
same,"viability, T/C","second compound 10 µM, first compound 0.001 µM",103%
same,"viability, T/C","second compound 10 µM, first compound 0.00316 µM",94.4%
same,"viability, T/C","second compound 10 µM, first compound 0.01 µM",100%
same,"viability, T/C",[31],111%
same,"viability, T/C",[32],99.2%
O=C(c1cc(Cc2n[nH]c(=O)c3ccccc23)ccc1F)N1CCN(C(=O)C2CC2)CC1 + Cc1cccc(N(C)C(=O)C2C(O)CCN2c2nc(C)cc(C(F)(F)F)c2C#N)c1,IC50,second compound 0.0316 µM,> 10 µM
same,IC50,second compound 0.1 µM,> 10 µM
same,IC50,second compound 0.316 µM,> 10 µM
same,IC50,second compound 1 µM,> 10 µM
same,IC50,second compound 3.16 µM,> 10 µM
same,IC50,second compound 10 µM,> 10 µM
same,"viability, T/C",[1],117%
same,"viability, T/C",[2],114%
same,"viability, T/C",[3],117%
same,"viability, T/C",[4],107%
same,"viability, T/C",[5],101%
same,"viability, T/C",[6],80.1%
same,"viability, T/C",[7],111%
same,"viability, T/C",[8],103%
same,"viability, T/C",[9],108%
same,"viability, T/C",[10],109%
same,"viability, T/C",[11],101%
same,"viability, T/C",[12],75.3%
same,"viability, T/C",[13],105%
same,"viability, T/C",[14],95%
same,"viability, T/C",[15],110%
same,"viability, T/C",[16],111%
same,"viability, T/C",[17],103%
same,"viability, T/C",[18],76.8%
same,"viability, T/C",[19],104%
same,"viability, T/C",[20],108%
same,"viability, T/C",[21],111%
same,"viability, T/C",[22],107%
same,"viability, T/C",[23],106%
same,"viability, T/C",[24],81.2%
same,"viability, T/C",[25],93.8%
same,"viability, T/C",[26],103%
same,"viability, T/C",[27],120%
same,"viability, T/C",[28],103%
same,"viability, T/C",[29],105%
same,"viability, T/C",[30],66.9%
same,"viability, T/C",[31],109%
same,"viability, T/C",[32],113%
same,"viability, T/C",[33],114%
same,"viability, T/C",[34],106%
same,"viability, T/C",[35],96.7%
same,"viability, T/C",[36],65.1%
